Laboratory results as given in the supplement of paper PMC10307832.

Columns and labels:
Test in all cases: relative viability (nuclei count vs DMSO), 5 days (fraction); higher = more cells survive
[1] = compound: Nc1ccn([C@@H]2O[C@H](CO)[C@@H](O)C2(F)F)c(=O)n1 [Gemcitabine] + CC1(C)CCC(c2ccc(Cl)cc2)=C(CN2CCN(c3ccc(C(=O)NS(=O)(=O)c4ccc(N[C@H](CCN5CCOCC5)CSc5ccccc5)c(S(=O)(=O)C(F)(F)F)c4)cc3)CC2)C1 [Navitoclax] (partner 0.5 µM)
Summary of the method: (§1)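 Lung cancer cell lines were pin-tool dosed in 1536-well plates on the day after seeding, with either a lone drug or a fixed anchor-drug dose plus five library-drug doses (not always all listed) in √10 steps. Nuclei were counted on 4× images after 5 days. Relative viability is the ratio of treated-well to vehicle-well nuclei counts, with each value a median of duplicate plates.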

[2] = compound: Nc1ccn([C@@H]2O[C@H](CO)[C@@H](O)C2(F)F)c(=O)n1 [Gemcitabine] + C[C@@H](Oc1cc(-c2cnn(C3CCNCC3)c2)cnc1N)c1c(Cl)ccc(F)c1Cl [Crizotinib] (partner 1 µM)
Summary of the method: as §1

[3] = compound: Nc1ccn([C@@H]2O[C@H](CO)[C@@H](O)C2(F)F)c(=O)n1 [Gemcitabine] + Cc1cc(Nc2cc(N3CCN(C)CC3)nc(Sc3ccc(NC(=O)C4CC4)cc3)n2)n[nH]1 [Tozasertib] (partner 0.1 µM)
Summary of the method: as §1

[4] = compound: Nc1ccn([C@@H]2O[C@H](CO)[C@@H](O)C2(F)F)c(=O)n1 [Gemcitabine] + O=C(CCCCCCC(=O)Nc1ccccc1)NO [Vorinostat] (partner 1 µM)
Summary of the method: as §1

Cell Line | relative viability ([1]; first compound 0.001 µM) | relative viability ([1]; first compound 0.003162 µM) | relative viability ([1]; first compound 0.01 µM) | relative viability ([1]; first compound 0.03162 µM) | relative viability ([1]; first compound 0.1 µM) | relative viability ([2]; first compound 0.001 µM) | relative viability ([2]; first compound 0.003162 µM) | relative viability ([2]; first compound 0.01 µM) | relative viability ([2]; first compound 0.03162 µM) | relative viability ([2]; first compound 0.1 µM) | relative viability ([3]; first compound 0.001 µM) | relative viability ([3]; first compound 0.003162 µM) | relative viability ([3]; first compound 0.01 µM) | relative viability ([3]; first compound 0.03162 µM) | relative viability ([3]; first compound 0.1 µM) | relative viability ([4]; first compound 0.001 µM) | relative viability ([4]; first compound 0.003162 µM) | relative viability ([4]; first compound 0.01 µM) | relative viability ([4]; first compound 0.03162 µM) | relative viability ([4]; first compound 0.1 µM)
HOP-62 | 0.933 | 0.813 | 0.097 | 0.0507 | 0.0459 | 0.906 | 0.677 | 0.0595 | 0.051 | 0.0502 | 0.392 | 0.285 | 0.0943 | 0.0841 | 0.0623 | 0.661 | 0.353 | 0.0836 | 0.0926 | 0.0697
NCI-H1915 | 0.768 | 0.789 | 0.785 | 0.797 | 0.364 | 0.967 | 0.87 | 0.881 | 0.426 | 0.247 | 0.461 | 0.462 | 0.397 | 0.317 | 0.193 | 0.49 | 0.5 | 0.45 | 0.391 | 0.258
NCI-H3122 | 1.02 | 1.03 | 0.912 | 0.253 | 0.196 | 0.306 | 0.27 | 0.253 | 0.135 | 0.119 | 0.428 | 0.365 | 0.222 | 0.106 | 0.0862 | 0.926 | 1.09 | 0.618 | 0.202 | 0.098
NCI-H1651 | 1.07 | 1.16 | 0.928 | 0.204 | 0.0844 | 0.913 | 0.855 | 0.85 | 0.346 | 0.138 | 0.621 | 0.683 | 0.693 | 0.177 | 0.0714 | 0.555 | 0.537 | 0.548 | 0.301 | 0.115
